The source of these data is patent publication US7267990B2, “Chelation of charged and uncharged molecules with porphyrin-based compounds” (priority 2002, dated 2007).

Data set [1] deals with healthy female Balb/c mice. The settings on record: mouse, in vivo. The text has this:
So far we have determined maximum tolerated doses for compounds 4, 6, 16, 31, and 33 using healthy female Balb/c mice.

Data set [2] deals with V79 hamster fibroblast cells. Kind of data set: Clonogenic cytotoxicity assay in V79 cells. The settings on record: concentrations up to 200 μM. It is filed as cell-based. The method, then: Human glioblastoma U373 MG, hamster V79 fibroblast, and mouse melanoma B16 cells were obtained from the American Type Culture Collection. Rat gliosarcoma cells were kindly provided by the University of California at San Francisco Brain Tumor Research Group. All cells were maintained in log phase monolayer cultures with RPMI 1640 supplemented with 10% fetal bovine serum and 2 mM glutamine. We have also determined the cytotoxicity of porphyrins 4, 16, 18, and 31 in V79 hamster fibroblast cells using a clonogenic assay. For each of these porphyrins, we found CS50>300 μM, and we observed no toxicity (i.e., no effect on colony survival) at concentrations up to 200 μM.

Data set [3] concerns rat 9 L gliosarcoma cells. Briefly: Dark cytotoxicity assay, 9L cells. It is filed as cell-based. The settings on record: 24 hour exposure, concentrations up to 250 μM, read-out: IC50 (dark toxicity, inhibition of proliferation). The protocol: (§1) Human glioblastoma U373 MG, hamster V79 fibroblast, and mouse melanoma B16 cells were obtained from the American Type Culture Collection. Rat gliosarcoma cells were kindly provided by the University of California at San Francisco Brain Tumor Research Group. All cells were maintained in log phase monolayer cultures with RPMI 1640 supplemented with 10% fetal bovine serum and 2 mM glutamine.
(§2) Cells were seeded in 96-well culture plates, and were allowed to settle and attach for 24-48 hours. Triplicate wells were then exposed to twofold serial dilutions of test compounds at concentrations up to 250 μM. Compounds 4, 6, 10, and 12 in crystalline form were carefully weighed and dissolved in 100% DMSO to prepare stock solutions. Subsequent dilutions were performed directly in the culture medium just before the medium was administered to cells. After short-term (2 hour) or long-term (24 hour) exposure, cells were washed, and the wells were refilled with fresh culture medium. For dark toxicity trials, cells were allowed to proliferate for an additional 48-72 hours. For phototoxicity trials, washed cells were irradiated for 10 minutes with broad spectrum (600-700 nm) red light, and were then returned to an incubator for 48-72 hours.

For data set [4], the system named is human U-373MG glioblastoma cells. Briefly: Dark cytotoxicity assay, U-373 MG cells. In kind it is cell-based. The settings on record: 24 hour exposure, concentrations up to 250 μM, read-out: IC50 (dark toxicity, inhibition of proliferation). The protocol: as §1, §2

Regarding “meso-tetra[4-(nido-carboranyl)phenyl]porphyrin tetrapotassium salt [Compound 16]”, in data set [1], the maximum tolerated dose entry is listed as “exceeded 300 mg per kg of body weight”. Moreover, the “toxicity (effect on colony survival)” value in data set [2] is listed as “no toxicity”.

As to “Zn(II)-meso-tetra[4-(nido-carboranyl)phenyl]porphyrin tetrapotassium salt [Compound 18]”, the “toxicity (effect on colony survival)” value in data set [2] is reported as “no toxicity”.

As for “meso-tetra[3-(1-methyl-nido-carboranyl)methylphenyl]porphyrin tetrapotassium salt [Compound 10]”, the IC50 in data set [3] and in data set [4] was roughly 150 µM in each case.

For “5,15-bis[bis-3,5-(1-methyl-o-carboranyl)methylphenyl]porphyrin [Compound 33]”, the maximum tolerated dose entry in data set [1] is recorded as “exceeded 300 mg per kg of body weight”.

With “Zn(II)-meso-tetra[4-(1-methyl-nido-carboranyl)methylphenyl]porphyrin tetrapotassium salt [Compound 6]”, the maximum tolerated dose entry in data set [1] is “exceeded 300 mg per kg of body weight”.

For the substance “meso-tetra[4-(1-methyl-nido-carboranyl)methylphenyl]porphyrin tetrapotassium salt [Compound 4]”, the maximum tolerated dose entry in data set [1] is recorded as “exceeded 300 mg per kg of body weight”. The “toxicity (effect on colony survival)” value in data set [2] was “no toxicity”. Also, the IC50 in data set [3] and in data set [4] was roughly 150 µM each time.
